Measurements from ChEMBL document CHEMBL5729174, “Substituted benzofuran, benzopyrrole, benzothiophene, and structurally related complement inhibitors” (2022).

The compounds below were run against Complement factor D (Homo sapiens, UniProt P00746) (assay: Factor D Esterolytic Assay: An established esterolytic assay for the measurement of Factor D activity and inhibition of Factor D activity was used (Kam, C. M.; McRae, B. J.; Harper, J. W.; Niemann, M. A.; Volanakis, J. E.; Powers, J. C. Human complement proteins D, C2, and B Active site mapping with peptide thioester substrates. J Biol. Chem. 1987, 262, 3444-3451). For this assay Z-Lys-SBzl, 1.29 mM (Kim, S.; Narayana, S. V. L; Volanakis, J. E. Mutational analysis of the substrate binding site of human complement Factor D. Biochemistry. 1994, 33, 14393-14399.) was used as the substrate for Factor D ([…]). Hydrolysis of this compound by Factor D liberated a free sulfhydryl group which is then reacted with 5,5′-dithiobis(2nitrobenzoic acid) producing an intense yellow color (Habeeb, A. F. S. A. Reaction of protein sulfhydryl groups with Ellman's Reagent. Methods in Enzymol. 1976, 25, 457-464). The assays were performed in 96 well microtiter plates and rates of hydrolysis were monitored at 405 nm on a Biotek Synergy H1 plate reader. Hydrolysis rates were reported as change in mOD/min. The assay was conducted in 100 mM HEPES, 500 mM NaCl, pH 7.5 containing 10% DMSO in a final volume of 50 μL per well.).
Sequence of Complement factor D (P00746 whole entry): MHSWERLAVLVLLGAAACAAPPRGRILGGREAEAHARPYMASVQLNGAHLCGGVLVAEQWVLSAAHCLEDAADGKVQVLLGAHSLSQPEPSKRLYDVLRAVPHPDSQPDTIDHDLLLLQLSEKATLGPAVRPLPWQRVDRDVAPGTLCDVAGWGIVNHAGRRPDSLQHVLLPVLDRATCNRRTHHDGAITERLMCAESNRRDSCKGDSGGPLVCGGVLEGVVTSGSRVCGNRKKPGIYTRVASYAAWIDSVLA
For CS(=O)(=O)n1ccc2c(-c3ccnc(CN)c3F)cc(COc3ccccc3CC(=O)O)cc21, the IC50 was < 1000 nM.
In the case of NCc1nccc(-c2cc(COc3ccccc3CC(=O)O)cc3c2ccn3S(=O)(=O)C2CC2)c1F, the IC50 is reported as < 1000 nM.
In the case of NCc1cccc(-c2cc(COc3ccc(F)cc3CC(=O)O)cc3ccoc23)c1F, the IC50 is reported as < 1000 nM.
In the case of NCc1cccc(-c2cc(COc3ccccc3CC(=O)O)cc3cc[nH]c23)c1, the IC50 is reported as < 1000 nM.
